Reference: paper PMC11124940, “Sweeteners Show a Plasticizing Effect on PVP K30—A Solution for the Hot-Melt Extrusion of Fixed-Dose Amorphous Curcumin-Hesperetin Solid Dispersions” (Pharmaceutics, 2024)
Converted amounts (≈) assume the structure as drawn. Like-named read-outs stand apart in the source and are kept apart here.

Legend:
[1] = PAMPA GIT permeability assay; assay type: in vitro ADME; conditions: GIT model, donor pH ≈6.8, 4 h, 37 °C
Description: (§1) The injection volume differed depending on the assay. […] The duration of the run was 10 min.

[2] = PAMPA, 4 h, pH 7.4
Description: Concentrations of curcumin and hesperetin in samples collected during solubility, dissolution, and permeability studies were determined using HPLC with the DAD detector (HPLC-DAD). Shimadzu Nexera (Shimadzu Corp., Kyoto, Japan) equipped with an SCL-40 system controller, a DGU-403 degassing unit, an LC-40B XR solvent delivery module, a SIL-40C autosampler, a CTO-40C column oven, and an SPD-M40 photodiode array detector were employed in this investigation. For the stationary phase, a Dr. Maisch ReproSil-Pur Basic-C18 100 Å column with 5 µm particle size and 250 × 4.60 mm (Dr. Maisch, Ammerbuch-Entringen, Germany) was used. The mobile phase was HPLC-grade methanol:0.1% acetic acid (80:20 v/v). The mobile phase was vacuum filtered through a 0.45 µm nylon filter (Phenomenex, Torrance, CA, USA). The experimental conditions were as follows: a 1.0 mL/min flow rate, a wavelength of 420 nm for curcumin and 288 nm for hesperetin, and a column temperature of 30 °C. The injection volume differed depending on the assay. For the solubility study, it was 2 µL, whereas for the dissolution and permeability assays, it was 10 µL. […]
In vitro, gastrointestinal (GIT) and blood–brain barrier (BBB) permeability was studied using the Parallel Artificial Membrane Permeability Assay (PAMPA) models. […] The results are expressed as a concentration of the compound in the acceptor solution.

[3] = Apparent solubility study (24 h, 25 °C, HPLC); assay type: physicochemical
Description: as §1
Phosphate buffer at pH 6.8 was prepared as follows: 250 mL of 0.2 N potassium dihydrogen phosphate solution was placed in a 1000 mL volumetric flask, and then 112 mL of 0.2 N sodium hydroxide solution was added. The volume was made up to 1000 mL with purified water. Hydrochloric acid solution pH 1.2 was prepared from the analytically weighed amount following the manufacturer’s (Alfachem, Poznań, Poland) recommendations.
An excess amount of powder (corresponding to 6 mg of each active substance) was placed in a 10 mL glass tube. Then, 2.0 mL of phosphate buffer (pH 6.8) or HCl solution (pH 1.2) was added and stirred at 100 rpm at room temperature (25 ± 0.1 °C) for 24 h.

Structure (SMILES)	Curcumin Concentration in the acceptor solution [1]	Curcumin Concentration in the acceptor solution [2]	solubility at 24 h ([3]; HCl solution, pH 1.2 HCl, read-out: Curcumin Concentration (apparent solubility)) [µg/mL]	solubility at 24 h ([3]; aqueous buffer, thermodynamic from solid, pH 6.8 phosphate buffer, read-out: Curcumin Concentration (apparent solubility)) [µg/mL]	Hesperetin Concentration in the acceptor solution [1]	Hesperetin Concentration in the acceptor solution [2]	solubility at 24 h ([3]; HCl solution, simulated gastric fluid, thermodynamic from solid, pH 1.2 HCl, read-out: Hesperetin Concentration (apparent solubility)) [µg/mL]	solubility at 24 h ([3]; aqueous buffer, thermodynamic from solid, pH 6.8 phosphate buffer, read-out: Hesperetin Concentration (apparent solubility)) [µg/mL]
COc1cc(/C=C/C(=O)CC(=O)/C=C/c2ccc(O)c(OC)c2)ccc1O [Curcumin]	3.34 × 10^−6 ± 1.94 × 10^−6 c mg/mL	1.86 × 10^−5 ± 2.48 × 10^−6 c mg/mL	0.1 ± 0.01 (≈ 0.271 µM)	0.14 ± 0.02 (≈ 0.38 µM)				
COc1ccc([C@@H]2CC(=O)c3c(O)cc(O)cc3O2)cc1O [Hesperetin]					2.58 × 10^−5 ± 6.16 × 10^−6 c mg/mL	3.89 × 10^−5 ± 1.66 × 10^−5 c mg/mL	4 ± 1 (≈ 13.2 µM)	5 ± 1 (≈ 16.5 µM)
